Measured values published in patent US4086139A, “Differential inactivation of amylase in amylase-protease mixtures” (GB Fermentation Industries Inc., priority 1976, dated 1978).
Values joined by “and” are separate entries in the source; they are usually repeats but may differ in a detail not shown here. Identical values can stand only once. Like-named read-outs stand apart in the source and are kept apart here.

Key:
Assay type in all cases: biochemical
amylase [1] = experiment: Amylase activity of B. subtilis Alkaline Protease composition after oxidizing agent treatment (Food Chemicals Codex method); conditions: for Amylase % loss: 75 min
protease [2] = target: protease (Bacillus subtilis, UniProt P04189); experiment: Protease activity of B. subtilis Alkaline Protease composition after oxidizing agent treatment (Food Chemicals Codex method)
amylase [3] = target: T1, amylase (Sus scrofa, UniProt P00690); experiment: Amylase activity of pancreatin after hypochlorite treatment
T1 construct: purchased Cudahy Co; host or cells: pancreas (pancreatin)
T1 sequence (P00690 16-511): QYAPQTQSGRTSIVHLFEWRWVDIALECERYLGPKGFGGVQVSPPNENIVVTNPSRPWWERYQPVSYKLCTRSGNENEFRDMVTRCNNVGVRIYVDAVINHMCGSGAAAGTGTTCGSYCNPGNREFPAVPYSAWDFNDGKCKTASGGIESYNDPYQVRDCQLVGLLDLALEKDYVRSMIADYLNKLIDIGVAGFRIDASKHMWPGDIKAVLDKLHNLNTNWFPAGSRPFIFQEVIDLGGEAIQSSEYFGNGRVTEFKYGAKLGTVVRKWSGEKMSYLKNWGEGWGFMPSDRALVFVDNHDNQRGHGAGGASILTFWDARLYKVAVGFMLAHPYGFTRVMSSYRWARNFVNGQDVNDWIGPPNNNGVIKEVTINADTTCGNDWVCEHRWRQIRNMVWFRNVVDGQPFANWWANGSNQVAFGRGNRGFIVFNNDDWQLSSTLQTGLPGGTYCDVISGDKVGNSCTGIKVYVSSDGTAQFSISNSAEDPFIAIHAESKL
Experimental: (§1) Pancreatin obtained from the Cudahy Co. was dissolved in isotonic salt solution (0.9% NaCl) to a concentration of 3.13 g. in 25 g. of solution. The solution pH was 6.5. Sodium hypochlorite solution (Clorox®) was added and the increments equalized by the addition of isotonic salt solution. The isotonic salt solution is used to avoid potency degradation of the solution upon standing. A similar lack of effect was noted when using an enzyme solution having a pH of 5.8 rather than 6.5. The enzyme mixture was treated for 11/4 hr. at room temperature and then assayed for protease and amylase activity. As in the prior Examples, the percent sodium hypochlorite is based on the solids content of the enzyme solution.
(§2) ^1, ^2 Amylase and protease activity were assayed by the same

protease [4] = experiment: Protease activity of pancreatin after hypochlorite treatment; set-up: Protease Activity: unit not given beside the values; conditions: for Protease Activity: pH 6.5, 0% control 27,300; for Protease % loss: pH 6.5, 75 min
Experimental: as §1, §2

amylase [5] = experiment: Amylase inactivation in dry enzyme mixture from Bacillus subtilis culture filtrate, spray dried product; conditions: 0.35% NaOCl based on weight of dry mixture, pH 6.2-6.6
Experimental: (§3) Twenty five pounds of an unstandarized, dry enzyme mixture, obtained by drying the clarified culture filtrate from the aerobic fermentation of Bacillus subtilis in an aqueous nutrient culture medium containing assimilable C, N and mineral salts, and which was determined to contain neutral protease, alkaline protease and amylase, is admixed with one hundred pounds of water at 70°-85° F. and agitated to facilitate solution. The solution is adjusted to pH 6.2-6.6 by slow addition of 20% aqueous NaOH solution. Then, 1.67 pounds of Clorox® (containing 5.25% NaOCl) is slowly admixed with the foregoing enzyme solution to thereby result in the addition of 0.0877 pounds or 0.35% NaOCl based on the weight of the dry mixture.

[6] = tested on: protease (both neutral and alkaline); experiment: Protease retention in dry enzyme mixture from Bacillus subtilis culture filtrate, spray dried product; conditions: 0.35% NaOCl based on weight of dry mixture; pH 6.2-6.6; final spray dried material vs starting material
Experimental: as §3

[7] = Table II, treated solution, 0.3% based on weight of enzyme composition, final pH 6.5
[8] = Table III, spray-dried product, 0.3% based on weight of enzyme composition

protease (Bacillus subtilis, UniProt P04189), sequence (P04189 107-381): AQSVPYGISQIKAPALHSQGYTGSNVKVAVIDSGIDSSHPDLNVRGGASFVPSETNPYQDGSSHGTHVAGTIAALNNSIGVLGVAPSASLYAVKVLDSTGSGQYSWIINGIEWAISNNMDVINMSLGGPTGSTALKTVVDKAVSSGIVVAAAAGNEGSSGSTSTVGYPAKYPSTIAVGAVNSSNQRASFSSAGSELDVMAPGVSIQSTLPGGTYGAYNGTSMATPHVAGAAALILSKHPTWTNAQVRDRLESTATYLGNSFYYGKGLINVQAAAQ

OO [hydrogen peroxide, reference compound]
Amylase Activity (amylase [1]): 1250 | selective inactivation of amylase compared with hypochlorite (in words) (amylase [1]): substantially less effective in selectively inactivating amylase | Amylase Activity (amylase [1]; pH 6.4): 236 | Protease Activity (protease [2]): 157,512 | Protease Activity (protease [2]; pH 6.4): 29,579

[Na+].[O-][Cl+2]([O-])[O-] [sodium chlorate, reference compound]
effect on amylase activity (amylase [1]): Neither of these salts had any effect | effect on protease activity (protease [2]): Neither of these salts had any effect

OCl [sodium hypochlorite]
Amylase Activity (amylase [1]; 0.125% ion salt, pH 6.3, 0% control 583): 242 | Amylase % loss (amylase [1]; 0.125% ion salt, pH 6.3): 55% | Amylase Activity (amylase [1]; 0.25% ion salt, pH 6.3, 0% control 583): 16 | Amylase % loss (amylase [1]; 0.25% ion salt, pH 6.3): 97% | Amylase Activity (amylase [1]; 0.40% ion salt, pH 6.3, 0% control 583): 11 | Amylase % loss (amylase [1]; 0.40% ion salt, pH 6.3): 98% | Amylase Activity (amylase [1]; [7]): 3 | Amylase Activity (amylase [1]; [8]): 15 | Protease Activity (protease [2]; 0.125% ion salt, pH 6.3, 0% control 25,900): 25,100 | Protease Activity (protease [2]; 0.25% ion salt, pH 6.3, 0% control 25,900): 25,900 | Protease Activity (protease [2]; 0.40% ion salt, pH 6.3, 0% control 25,900): 24,600 | inhibition at 0.125 % (protease [2]; 1.25 h, 0.125% ion salt, pH 6.3, read-out: Protease % loss): 3% | inhibition at 0.25 % (protease [2]; 1.25 h, 0.25% ion salt, pH 6.3, read-out: Protease % loss): 0% | inhibition at 0.4 % (protease [2]; 1.25 h, 0.40% ion salt, pH 6.3, read-out: Protease % loss): 5% | Protease Activity (protease [2]; [7]): 27,365 | Protease Activity (protease [2]; [8]): 147,650 | Amylase Activity (amylase [3]; 1.8% on solids content, pH 6.5, room temperature, 0% control 1075): 467 | Amylase Activity (amylase [3]; 3.6% on solids content, pH 6.5, 0% control 1075): 31 | Amylase Activity (amylase [3]; 7.2% on solids content, pH 6.5, 0% control 1075): 3 | Amylase Activity (amylase [3]; 10.8% on solids content, pH 6.5, 0% control 1075): 0 | inhibition at 1.8 % (amylase [3]; 1.25 h, 1.8% on solids content, pH 6.5, read-out: Amylase % loss): 57% | inhibition at 3.6 % (amylase [3]; 1.25 h, 3.6% on solids content, pH 6.5, read-out: Amylase % loss): 97% | inhibition at 7.2 % (amylase [3]; 1.25 h, 7.2% on solids content, pH 6.5, read-out: Amylase % loss): 100% | inhibition at 10.8 % (amylase [3]; 1.25 h, 10.8% on solids content, pH 6.5, read-out: Amylase % loss): 100% | Protease Activity (protease [4]; 1.8% on solids content): 28,400 | Protease % loss (protease [4]; 1.8% on solids content): 0% | Protease Activity (protease [4]; 3.6% on solids content): 24,800 | Protease % loss (protease [4]; 3.6% on solids content): 9% | Protease Activity (protease [4]; 7.2% on solids content): 19,100 | Protease % loss (protease [4]; 7.2% on solids content): 30% | Protease Activity (protease [4]; 10.8% on solids content): 11,200 | Protease % loss (protease [4]; 10.8% on solids content): 59% | amylase destruction (in words) (amylase [5]): immediately destroys the amylase | amylase inactivated (amylase [5]; final spray dried material vs starting material): about 98% | protease retained in the final product [6]: greater than 90%

[O-][Cl+3]([O-])([O-])O [sodium perchlorate, reference compound]
effect on amylase activity (amylase [1]): Neither of these salts had any effect | effect on protease activity (protease [2]): Neither of these salts had any effect

sodium chlorite
Amylase % loss (amylase [1]; b. subtilis amylase, pH 6.3, 75 min): 99% | Protease % loss (protease [2]; b. subtilis alkaline protease, pH 6.3, 75 min, 75 min): 0% and 1% and 8% | Protease Activity (protease [2]; pH 6.3): 40,800 and 39,900 and 37,200
